# Results reported in article PMC13266999, “Designing Antibiotics with Inherent Resistance to Efflux as a Strategy to Revive Discovery against Multidrug-Resistant Pathogens” (Journal of Medicinal Chemistry, 2026).
# Where two headings read alike, the source gives them in different places.
# Experiments:
# [1] = test system: E. coli; assay: MIC (microbroth dilution); format: cell-based; settings: Escherichia coli
# Method: (§1) All bacteria were maintained on tryptic soy agar (TSA), except Streptococcus spp., which were maintained on Columbia agar plates containing 5% horse blood. […] Bacteria were grown to stationary phase in liquid culture overnight, with shaking at 200 rpm, before being back diluted to the relevant starting concentration for each assay below. MICs were measured by the microbroth dilution method. […] Absorbance at OD600 was read on a CLARIOstar spectrophotometer (BMG Labtech) and the MIC was defined as the minimum concentration of compound where no visible growth was detected. […] MICs were also performed in the presence of the outer membrane permeator, polymyxin b nonapeptide (PMBN) following the same MIC method but with the following variation. The 2-fold dilution series of compound was prepared as above, then 50 μL of PMBN at a final concentration of 30 μg/mL was added to relevant wells, while 50 μL/well of blank media was added to the remaining wells. Bacteria were then added at 50 μL/well for a starting concentration as above. […] The MICs were read and defined as above. All animal procedures were performed by the contract research organization Pharmacology Discovery Services Taiwan in accordance with the Guide for the Care and Use of Laboratory Animals. The procedures were approved by the Institutional Ethics Committee of Pharmacology Discovery Services Taiwan, Ltd. (approval no. AB127662), in compliance with animal welfare legislation in Taiwan.
# [2] = test system: K. pneumoniae; assay: MIC (microbroth dilution); format: cell-based, Klebsiella pneumoniae; settings: Klebsiella pneumoniae, read-out: MIC
# Method: as §1
# [3] = test system: Acinetobacter baumannii; assay: MIC (microbroth dilution); format: cell-based
# Method: All bacteria were maintained on tryptic soy agar (TSA), except Streptococcus spp., which were maintained on Columbia agar plates containing 5% horse blood. All bacterial assays were carried out in tryptic soy broth (TSB), except for Streptococcus spp. which were grown in cation-adjusted Mueller Hinton broth containing 2.5% lysed horse blood. Bacteria were grown to stationary phase in liquid culture overnight, with shaking at 200 rpm, before being back diluted to the relevant starting concentration for each assay below. MICs were measured by the microbroth dilution method. […] Absorbance at OD600 was read on a CLARIOstar spectrophotometer (BMG Labtech) and the MIC was defined as the minimum concentration of compound where no visible growth was detected. The compounds were prepared as a DMSO stock and equivalent concentrations of DMSO had no effect on bacterial growth. MICs were also performed in the presence of the outer membrane permeator, polymyxin b nonapeptide (PMBN) following the same MIC method but with the following variation. The 2-fold dilution series of compound was prepared as above, then 50 μL of PMBN at a final concentration of 30 μg/mL was added to relevant wells, while 50 μL/well of blank media was added to the remaining wells. Bacteria were then added at 50 μL/well for a starting concentration as above. Thirty μg/mL of PMBN had no effect on bacterial growth. The MICs were read and defined as above. All animal procedures were performed by the contract research organization Pharmacology Discovery Services Taiwan in accordance with the Guide for the Care and Use of Laboratory Animals. The procedures were approved by the Institutional Ethics Committee of Pharmacology Discovery Services Taiwan, Ltd. (approval no. AB127662), in compliance with animal welfare legislation in Taiwan.
# [4] = test system: A. baumannii strain AYE; assay: Time-kill assay; format: cell-based; settings: 4 × MIC
# Method: Time-kill assays were performed as defined previously.
# [5] = test system: S. aureus; assay: Serial passaging, MIC of adapted strains; format: cell-based; settings: Staphylococcus aureus
# Method: MICs were performed on the first and 10th passage.
# [6] = test system: S. aureus; assay: MIC (microbroth dilution); format: cell-based, Staphylococcus aureus; settings: for MIC: Staphylococcus aureus
# How it was run: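 Overnight stationary-phase cultures back-diluted and tested by broth microdilution with 2-fold compound series. MIC is lowest concentration with no visible growth, with OD600 also read. Separate runs included polymyxin B nonapeptide at 30 μg/mL final as outer-membrane permeabilizer.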
# [7] = test system: NorA overexpressing strain NCTC 13616; assay: Reserpine growth (efflux inhibition) assay; settings: 0.5x MIC with vs without reserpine
# Method: Statistical analyses were performed with GraphPad Prism V9.5.0. […] Unpaired t tests were used when comparing two samples in the gyrase assays.
# [8] = reported values; cited from earlier work
compound,measurement,setting,value
"COc1c(N2CC[C@@H](Nc3ncccn3)C2)c(F)cc2c(=O)c(C(=O)O)cn(C3CC3)c12 [Compound 51, (R)-1-Cyclopropyl-6-fluoro-8-methoxy-4-oxo-7-(3-(pyrimidin-2-ylamino)pyrrolidin-1-yl)-1,4-dihydroquinoline-3-carboxylic acid]",MIC,[1]; 319238/UR,16 µg/mL
same,MIC,[1]; LEC006,0.25 µg/mL
same,MIC,[1]; LEC007,0.125 µg/mL
same,MIC,[1]; LEC077,4 µg/mL
same,MIC,[1]; LEC081,2 µg/mL
same,MIC,"[1]; NCTC10418, NCTC 10418",0.125 µg/mL
same,MIC,"[1]; NCTC11954, NCTC 11954",0.125 µg/mL
same,MIC,"[1]; NCTC12241, NCTC 12241",0.06 µg/mL
same,MIC,"[1]; NCTC12923, NCTC 12923",≤ 0.125 µg/mL
same,MIC,[2]; M6,1 to 2 µg/mL
same,MIC,"[2]; NCTC13368, NCTC 13368",4 µg/mL
same,MIC,[2]; TW3,0.5 µg/mL
same,MIC,"[3]; Acinetobacter baumannii, 86, oxa23",16 µg/mL
same,MIC,"[3]; Acinetobacter baumannii, A601 colS",≤ 0.03 µg/mL
same,MIC,"[3]; Acinetobacter baumannii, ATCC17978, ATCC 17978, read-out: MIC",≤ 0.125 µg/mL
same,MIC,"[3]; Acinetobacter baumannii, BAA1709, BAA-1709, read-out: MIC",0.06 µg/mL
same,MIC,"[3]; Acinetobacter baumannii, BAA1710, BAA-1710 (AYE), read-out: MIC",4 µg/mL
same,MIC,"[3]; Acinetobacter baumannii, BAA2093, BAA-2093, read-out: MIC",0.03 to 0.06 µg/mL
same,MIC,"[3]; Acinetobacter baumannii, NCTC10303, NCTC 10303, read-out: MIC",0.06 µg/mL
same,MIC,"[3]; Acinetobacter baumannii, NCTC12156, NCTC 12156, read-out: MIC",0.125 µg/mL
same,MIC,"[3]; Acinetobacter baumannii, NCTC13302, NCTC 13302, oxa24, read-out: MIC",4 µg/mL
same,MIC,"[3]; Acinetobacter baumannii, NCTC13424, NCTC 13424, oxa23, read-out: MIC",> 32 µg/mL
same,MIC,"[3]; Acinetobacter baumannii, T strain",8 µg/mL
same,MIC,"[3]; Acinetobacter baumannii, UKA1, oxa23, read-out: MIC",2 µg/mL
same,MIC,"[3]; Acinetobacter baumannii, UKA2, Low resistance, read-out: MIC",4 µg/mL
same,MIC,"[3]; Acinetobacter baumannii, UKA9, read-out: MIC",0.06 µg/mL
same,MIC,"[3]; Acinetobacter baumannii, UKA12, oxa23, read-out: MIC",2 µg/mL
same,MIC,"[3]; Acinetobacter baumannii, UKA13, oxa23, read-out: MIC",2 µg/mL
same,MIC,"[3]; Acinetobacter baumannii, UKA15, oxa23, read-out: MIC",2 µg/mL
same,MIC,"[3]; Acinetobacter baumannii, UKA19, read-out: MIC",0.25 µg/mL
same,MIC,"[3]; Acinetobacter baumannii, W1, read-out: MIC",4 µg/mL
same,time-kill profile,[4],rapid bactericidal activity
same,MIC,[5]; 1199B WT,0.008 µg/mL
same,MIC,[5]; 1199B adapted to 4 x MIC of Compound 7,0.008 µg/mL
same,MIC,[5]; 1199B adapted to 4 x MIC of Compound 46,0.03 µg/mL
same,MIC,[5]; 1199B adapted to 4 x MIC of Compound 50,0.125 µg/mL
same,MIC,[5]; 1199B adapted to 4 x MIC of Compound 51,0.015 µg/mL
same,MIC,[5]; 1199 WT,0.004 µg/mL
same,MIC,[5]; 1199 adapted to 4 x MIC of Compound 7,≤ 0.008 µg/mL
same,MIC,[5]; 1199 adapted to 4 x MIC of Compound 46,≤ 0.008 µg/mL
same,MIC,[5]; 1199 adapted to 4 x MIC of Compound 50,0.06 µg/mL
same,MIC,[5]; 1199 adapted to 4 x MIC of Compound 51,0.015 µg/mL
same,MIC,"[5]; NCTC13616, NCTC 13616 WT",0.125 µg/mL
same,MIC,"[5]; NCTC13616, NCTC 13616 adapted to 4 x MIC of Compound 7",0.25 µg/mL
same,MIC,"[5]; NCTC13616, NCTC 13616 adapted to 4 x MIC of Compound 46",0.125 µg/mL
same,MIC,"[5]; NCTC13616, NCTC 13616 adapted to 4 x MIC of Compound 50",0.25 µg/mL
same,MIC,"[5]; NCTC13616, NCTC 13616 adapted to 4 x MIC of Compound 51",0.5 µg/mL
same,fold more active than moxifloxacin,[6],4–8 fold
same,MIC,"[6]; ATCC9144, ATCC 9144, read-out: MIC",≤ 0.03 µg/mL
same,MIC,"[6]; NCTC13277, NCTC 13277, read-out: MIC",0.125 to 0.25 µg/mL
same,MIC,"[6]; NCTC13616, NCTC 13616, read-out: MIC",0.125 µg/mL
same,MIC,"[6]; SA-1199, read-out: MIC",0.004 µg/mL
same,MIC,[6]; SA-1199B (NorA-overexpressing),0.004 µg/mL
same,efflux liability in reserpine assay,[7],minimal shift
Nc1nc(-n2cc(C(=O)O)c(=O)c3cc(F)c(N4CC(O)C4)c(Cl)c32)c(F)cc1F [delafloxacin],plasma protein binding,[8],84%
